Drawing on patent US20090291083A1, “BARB4 TARGET, ANTIBODY DESIGNATED BARB4, BARB4 RELATED ANTIBODIES, AND METHODS OF MAKING AND USING SAME” (PATRYS LIMITED, priority 2008, published 2009), this text covers IC50 for one compound.

A word on the IC50: it is the concentration at which inhibition is half-maximal.

Where two headings read alike, the source gives them in different places.

Experiment in all cases: MTT cell proliferation assay (Table 2)
Assay type in all cases: cell-based, human

The subject of one experiment is MDA-MB-231. The method, then:
(§1) BARB4 was also evaluated for inhibition of proliferation of other cancer cell lines, including BxPC-3, COLO 205, H460, MDA-MB-231 and MIAPaCa-2 cells, as well as HT-29, HCT-116, BxPC-3, PANC-1, A549, PC-3 and HCT116 cells. In brief, various human cancer cell lines obtained from the American Type Culture Collection (ATCC) were established using standard in vitro culture methods and ATCC recommended media in 175 cm2 BD tissue culture treated flasks. In particular, MDAMB-231 cultures were incubated in a humidified 37° C., 100% air incubator, and BxPC-3, COLO 205, H460 and MIAPaCa-2 cultures were incubated in a humidified 37° C., 5% CO2, 95% air incubator. Cultures were sub-cultivated regularly to maintain log phase growth. All cell lines were brought up from cryopreservation using the original recommended ATCC media type and supplements. Cell line specific seeding densities were based on historical data from MIR Preclinical Services for growth over a 72 hr period.
(§2) On the day of IC50 plate seeding, the adherent cells were removed from the flasks for each cell line using trypsin EDTA, 1× (Cell Gro #25-053-CI). Trypsin was deactivated using complete media and the cells were pooled (each line done separately). The pooled cells in complete media were counted using trypan blue exclusion with a Neubauer Bright-Line® hemacytometer. The percent viability for each cell line was as follows:
(§3) Based on live cell counts, each suspension was then diluted in complete media (containing required supplements) to achieve the desired seeding density for each cell line. Once seeded, the cells were allowed to attach to the plates overnight and then treated with BA4 or cisplatin 24 hr post-seeding.
(§4) BARB4 was serially diluted 1:2 (2× final conc. in dilution reservoir=1600 μg/ml) in media to achieve a final 800 μg/ml starting concentration in the top dosage wells of the treatment plate by diluting 1:2 when transferred from the reservoir to the treatment plate. Antibody was added to columns 1 through 10 of the treatment plate. Column 11 was for cells+media only control and column 12 was for a media only blank. Cisplatin (positive control) was manufactured by Sigma (# M4394, lot 087K1349) and supplied as a fine, dark yellow powder, in an amber vial, stored at room temperature and housed in a covered box to prevent exposure to light. Cisplatin was previously dissolved in 0.9% saline to make a clear, colorless 4 mM stock solution, aliquoted and frozen at −20° C. Frozen aliquots were quickly thawed by holding the tubes in hand, placed on wet ice and diluted (2× conc. dilution reservoir) to achieve a final 1 mM starting concentration in the top dosage wells of the treatment plate (diluted 1:2 when transferred from the dilution reservoir to the treatment plate). Serial dilutions of 1:4 were made from wells 1 through 10 of the dilution reservoir prior to transfer to the treatment plate.
(§5) The BARB4 stock solution (10.5 mg/ml) was prepared by dilution in complete media according to the table below for a final starting treatment concentration of 800 μg/ml. The 4 mM stock solution of cisplatin in 0.9% saline was diluted in complete media for a final starting treatment concentration of 1 mM.
(§6) Cells were exposed to BARB4 or cisplatin for a 24 hr period. The plates were incubated overnight at 37° C. At 24 hr and 48 hr post-treatment, the MTT assay was performed as described below.
(§7) The anti-proliferative activity of BARB4 and cisplatin was evaluated using the MTT cell proliferation assay (ATCC catalog #30-1010K). The assay is based on the reduction of yellow tetrazolium MTT (3-(4,5-dimethylthiazolyl-2)-2,5-diphenyltetrazolium bromide) by metabolically active cells forming purple formazan crystals. […]

A further experiment has as its system BxPC-3. As for the experimental part: as §1, §2, §3, §4, §5, §6, §7
In a further experiment the test system is COLO 205. The method, then:
as §1, §2, §3, §4, §5, §6, §7

The subject of the next experiment is H460. The method, then:
as §1, §2, §3, §4, §5, §6, §7

In another experiment the test system is MIAPaCa-2. The method, then: as §1, §2, §3, §4, §5, §6, §7
Setting [1] is: MTT 24 hr post-treatment, read-out: IC50, Cisplatin (24 hr).
The mark [2] stands for this setting: MTT 48 hr post-treatment, read-out: IC50, Cisplatin (48 hr).

For the compound `N.N.[Cl][Pt][Cl]` [Cisplatin, reference compound], the half-maximal inhibitory concentration (IC50) worked out at 97.5 µM with MDA-MB-231 (setting [1]); 233 µM in the experiment with MDA-MB-231 (setting [2]); 39.2 µM in the experiment on BxPC-3 (BxPC-3, MTT 24 hr post-treatment, read-out: IC50, Cisplatin (24 hr)); 9.41 µM with BxPC-3 (BxPC-3, MTT 48 hr post-treatment, read-out: IC50, Cisplatin (48 hr)); 13.6 µM in the experiment with BxPC-3 (BxPC-3 repeat, MTT 24 hr post-treatment, read-out: IC50, Cisplatin (24 hr)); 5.65 µM with BxPC-3 (BxPC-3 repeat, MTT 48 hr post-treatment, read-out: IC50, Cisplatin (48 hr)). The IC50 in the experiment with COLO 205 (setting [1]) stood at 58.5 µM; in the experiment with COLO 205 (setting [2]), 62.9 µM; in the experiment on H460 (setting [1]), 63.3 µM; in the experiment with H460 (setting [2]), 6.37 µM; in the experiment on MIAPaCa-2 (setting [1]), 43.9 µM; in the experiment on MIAPaCa-2 (setting [2]), 29.8 µM.
